# From patent US20240158385A1, “NOVEL COMPOUNDS” (Cerevance, Inc., priority 2021, published 2024)
# pIC50: −log10 of the molar value.
# Molecular target: T1, human KCNK13 (Homo sapiens, UniProt Q9HB14)
# T1 construct: expressed in transfected cells
# T1 sequence (Q9HB14 1-408): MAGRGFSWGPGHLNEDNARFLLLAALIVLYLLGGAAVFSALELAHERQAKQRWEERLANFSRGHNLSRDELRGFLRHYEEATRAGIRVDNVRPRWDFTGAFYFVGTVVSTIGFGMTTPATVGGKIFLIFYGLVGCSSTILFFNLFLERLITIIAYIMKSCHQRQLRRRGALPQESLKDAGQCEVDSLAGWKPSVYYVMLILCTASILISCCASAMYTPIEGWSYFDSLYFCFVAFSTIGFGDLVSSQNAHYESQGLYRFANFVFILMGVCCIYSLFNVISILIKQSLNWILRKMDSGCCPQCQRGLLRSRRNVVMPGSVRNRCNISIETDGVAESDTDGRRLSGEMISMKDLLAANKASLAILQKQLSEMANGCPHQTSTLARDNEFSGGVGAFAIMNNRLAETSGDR
# Assay: KCNK13 antagonist activity, thallium (Tl+) flux FLIPR assay
# Assay type: cell-based
# Settings: not given
# Method in brief: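 HEK 293 cells stably expressing human KCNK13 loaded with Tl+-sensitive dye for 1 h at room temperature. Compounds (10-point half-log curves) preincubated 15 min before thallium sulfate stimulus, fluorescence tracked by FLIPR. IC50 from ten-point curves, each point the mean of two wells.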
row,SMILES,pIC50
1,"Nc1nonc1-c1nc2ncc(F)cc2n1Cc1ccc(Cl)nc1 [Example 159, 4-(1-((6-chloropyridin-3-yl)methyl)-6-fluoro-1H-imidazo[4,5-b]pyridin-2-yl)-1,2,5-oxadiazol-3-amine]",> 7.30

# Same assay, conditions: HEK 293 cells stably expressing human KCNK13; Tl+ sensitive dye, FLIPR; compounds 15 minutes prior to thallium sulfate; 10 point half log curves from 10 PM; read-out: hKCNK13 IC50
row,SMILES,pIC50
1,"Nc1nonc1-c1nc2ccccc2n1Cc1ccnnc1 [Example 107, 4-[1-(pyridazin-4-ylmethyl)benzimidazol-2-yl]-1,2,5-oxadiazol-3-amine]",> 6.70
2,"Fc1nsnc1-c1nc2ccccc2n1Cc1cccnc1 [Example 108, 3-fluoro-4-[1-(pyridin-3-ylmethyl)benzimidazol-2-yl]-1,2,5-thiadiazole]",> 6.30
3,"Nc1nonc1-c1nc2ccccc2n1Cc1cccnc1C(F)(F)F [Example 109, 4-[1-[[2-(trifluoromethyl)pyridin-3-yl]methyl]benzimidazol-2-yl]-1,2,5-oxadiazol-3-amine]",> 6.30
4,"Cc1nonc1-c1nc2ccncc2n1Cc1cccnc1 [Example 110, 3-methyl-4-[3-(pyridin-3-ylmethyl)imidazo[4,5-c]pyridin-2-yl]-1,2,5-oxadiazole]",> 6.30
5,"Cc1onc(-c2nc3ccccc3n2Cc2cccnc2)c1C [Example 111, 4,5-dimethyl-3-[1-(pyridin-3-ylmethyl)benzimidazol-2-yl]isoxazole]",> 6.30
6,"Cc1nocc1-c1nc2ccccc2n1Cc1cccnc1 [Example 112, 3-methyl-4-[1-(pyridin-3-ylmethyl)benzimidazol-2-yl]isoxazole]",> 6.30
7,"Cc1cn(C)nc1-c1nc2ccccc2n1Cc1cccnc1 [Example 113, 2-(1,4-dimethylpyrazol-3-yl)-1-(pyridin-3-ylmethyl)benzimidazole]",> 6.30
8,"Cn1nccc1-c1nc2ccccc2n1Cc1cccnc1 [Example 114, 2-(1-methylpyrazol-5-yl)-1-(pyridin-3-ylmethyl)benzimidazole]",> 6.00
9,"Nc1nonc1-c1nc2ccccc2n1Cc1ccccn1 [Example 115, 4-[1-(pyridin-2-ylmethyl)benzimidazol-2-yl]-1,2,5-oxadiazol-3-amine]",> 6.00
10,"CCc1nonc1-c1nc2ccccc2n1Cc1cccnc1 [Example 116, 3-ethyl-4-[1-(pyridin-3-ylmethyl)benzimidazol-2-yl]-1,2,5-oxadiazole]",> 6.00
11,"c1coc(-c2nc3ccccc3n2Cc2ccncc2)c1 [Example 117, 2-(furan-2-yl)-1-(pyridin-4-ylmethyl)benzimidazole]",> 6.00
12,"Brc1nsnc1-c1nc2ccccc2n1Cc1cccnc1 [Example 126, 3-bromo-4-(1-(pyridin-3-ylmethyl)benzimidazol-2-yl)-1,2,5-thiadiazole]",> 7.00
13,"Cc1nsnc1-c1nc2ccccc2n1Cc1cccnc1 [Example 127, 3-methyl-4-[1-(pyridin-3-ylmethyl)benzimidazol-2-yl]-1,2,5-thiadiazole]",> 7.00
14,"Cc1cnoc1-c1nc2ccccc2n1Cc1cccnc1 [Example 130, 4-methyl-5-[1-(pyridin-3-ylmethyl)benzimidazol-2-yl]isoxazole]",> 7.00
15,"Nc1nonc1-c1nc2c(F)cccc2n1Cc1cncnc1 [Example 131, 4-[4-fluoro-1-(pyrimidin-5-ylmethyl)benzimidazol-2-yl]-1,2,5-oxadiazol-3-amine]",> 7.00
16,"Nc1nonc1-c1nc2cc(F)cc(F)c2n1Cc1ccncc1 [Example 136, 4-(5,7-difluoro-1-(pyridin-4-ylmethyl)-benzimidazol-2-yl)-1,2,5-oxadiazol-3-amine]",> 7.00
17,"Cc1nsnc1-c1nc2cccc(F)c2n1Cc1cccnn1 [Example 139, 3-(7-fluoro-1-(pyridazin-3-ylmethyl)-benzimidazol-2-yl)-4-methyl-1,2,5-thiadiazole]",> 7.00
18,"Cc1nsnc1-c1nc2c(F)cccc2n1Cc1cccnn1 [Example 140, 3-(4-fluoro-1-(pyridazin-3-ylmethyl)-benzimidazol-2-yl)-4-methyl-1,2,5-thiadiazole]",> 6.30
19,"Nc1nonc1-c1nc2cc(F)cc(F)c2n1Cc1cccnn1 [Example 141, 4-(5,7-difluoro-1-(pyridazin-3-ylmethyl)-benzimidazol-2-yl)-1,2,5-oxadiazol-3-amine]",> 7.00
20,"Nc1nonc1-c1nc2c(F)cc(F)cc2n1Cc1cccnn1 [Example 142, 4-(4,6-difluoro-1-(pyridazin-3-ylmethyl)-benzimidazol-2-yl)-1,2,5-oxadiazol-3-amine]",> 6.70

row,SMILES,pIC50
1,"CNc1nsnc1-c1nc2cccc(F)c2n1Cc1cccnn1 [Example 143, 4-(7-fluoro-1-(pyridazin-3-ylmethyl)-benzimidazol-2-yl)-N-methyl-1,2,5-thiadiazol-3-amine]",> 6.70
2,"CNc1nsnc1-c1nc2c(F)cccc2n1Cc1cccnn1 [Example 144, 4-(4-fluoro-1-(pyridazin-3-ylmethyl)-benzimidazol-2-yl)-N-methyl-1,2,5-thiadiazol-3-amine]",> 6.00
3,"Nc1nonc1-c1nc2ccc(F)c(F)c2n1Cc1ccncc1 [Example 145, 4-(6,7-difluoro-1-(pyridin-4-ylmethyl)-benzimidazol-2-yl)-1,2,5-oxadiazol-3-amine]",> 7.30
4,"Nc1nonc1-c1nc2cccc(F)c2n1Cc1ccc(O)nn1 [Example 150, 6-((2-(4-amino-1,2,5-oxadiazol-3-yl)-7-fluoro-benzimidazol-1-yl)methyl)pyridazin-3-ol]",> 6.70
5,"Nc1nonc1-c1nc2c(F)ccc(F)c2n1Cc1cccnn1 [Example 154, 4-(4,7-difluoro-1-(pyridazin-3-ylmethyl)-benzimidazol-2-yl)-1,2,5-oxadiazol-3-amine]",> 7.30
6,"Nc1nonc1-c1nc2c(F)ccc(F)c2n1Cc1ccncc1 [Example 155, 4-(4,7-difluoro-1-(pyridin-4-ylmethyl)-benzimidazol-2-yl)-1,2,5-oxadiazol-3-amine]",> 7.30
7,"Nc1nocc1-c1nc2cccc(F)c2n1Cc1cccnn1 [Example 158, 4-(7-fluoro-1-(pyridazin-3-ylmethyl)-benzimidazol-2-yl)isoxazol-3-amine]",> 5.30
8,"Nc1nonc1-c1nc2ncc(F)cc2n1Cc1cncnc1 [Example 160, 4-(6-fluoro-1-(pyrimidin-5-ylmethyl)-1H-imidazo[4,5-b]pyridin-2-yl)-1,2,5-oxadiazol-3-amine]",> 6.30
9,"C[C@@H](c1cccnc1)n1c(-c2nonc2N)nc2cccc(F)c21 [Example 161, (S)-4-(7-fluoro-1-(1-(pyridin-3-yl)ethyl)-benzimidazol-2-yl)-1,2,5-oxadiazol-3-amine]",> 6.00
10,"CNS(=O)(=O)c1ccc(Cn2c(-c3nonc3C)nc3ccccc32)cn1 [Example 164, N-methyl-5-((2-(4-methyl-1,2,5-oxadiazol-3-yl)-benzimidazol-1-yl)methyl)pyridine-2-sulfonamide]",> 6.00
11,"Cc1nonc1-c1nc2cccnc2n1Cc1cnc(C#N)nc1 [Example 165, 5-((2-(4-methyl-1,2,5-oxadiazol-3-yl)-3H-imidazo[4,5-b]pyridin-3-yl)methyl)pyrimidine-2-carbonitrile]",> 7.00
12,"Nc1nonc1-c1nc2cccc(F)c2n1Cc1ccc(OC(F)(F)F)nc1 [Example 176, 4-(7-fluoro-1-((6-(trifluoromethoxy)pyridin-3-yl)methyl)-benzimidazol-2-yl)-1,2,5-oxadiazol-3-amine]",> 5.30
13,"N#Cc1ccc(Cn2c(-c3nonc3N)nc3cccnc32)nn1 [Example 177, 6-((2-(4-amino-1,2,5-oxadiazol-3-yl)-3H-imidazo[4,5-b]pyridin-3-yl)methyl)pyridazine-3-carbonitrile]",> 6.00
14,"CNc1nonc1-c1nc2cccc(F)c2n1Cc1cccnn1 [Example 178, 4-(7-fluoro-1-(pyridazin-3-ylmethyl)-benzimidazol-2-yl)-N-methyl-1,2,5-oxadiazol-3-amine]",> 5.30
15,"Nc1nonc1-c1nc2c(F)cccc2n1Cc1cccnn1 [Example 179, 4-(4-fluoro-1-(pyridazin-3-ylmethyl)-benzimidazol-2-yl)-1,2,5-oxadiazol-3-amine]",> 6.70
16,"CCS(=O)(=O)c1ccc(Cn2c(-c3nonc3C)nc3ccccc32)cn1 [Example 180, 3-(1-((6-(ethylsulfonyl)pyridin-3-yl)methyl)-benzimidazol-2-yl)-4-methyl-1,2,5-oxadiazole]",> 6.30
17,"CSc1ccc(Cn2c(-c3nonc3C)nc3ccccc32)cn1 [Example 181, 3-methyl-4-(1-((6-(methylthio)pyridin-3-yl)methyl)-benzimidazol-2-yl)-1,2,5-oxadiazole]",> 6.30
18,"Cc1conc1-c1nc2cccc(F)c2n1Cc1cccnn1 [Example 182, 3-(7-fluoro-1-(pyridazin-3-ylmethyl)-benzimidazol-2-yl)-4-methylisoxazole]",> 6.70
19,"Cc1nonc1-c1nc2c(F)ccc(F)c2n1Cc1cccnn1 [Example 185, 3-(4,7-difluoro-1-(pyridazin-3-ylmethyl)-benzimidazol-2-yl)-4-methyl-1,2,5-oxadiazole]",> 7.30
20,"Nc1conc1-c1nc2cccc(F)c2n1Cc1cccnn1 [Example 186, 3-(7-fluoro-1-(pyridazin-3-ylmethyl)-benzimidazol-2-yl)isoxazol-4-amine]",> 6.30
